Tests used:
[1] = Pharmacokinetic evaluation in mice after intragastric administration (LC/MS/MS); assay type: in vivo; conditions: female, mouse, plasma, po, mice, intragastric, 2 mg/kg
Description: The drug concentration in the plasma of the test animals (mice) at different time points after intragastric administration of the compound of Example 6 and the control example CC-92480 was determined by an LC/MS/MS method. The pharmacokinetic behavior of the compound of the present disclosure in mice was studied and its pharmacokinetic profile was evaluated.
Compound of Example 6 and control example CC-92480.
Eighteen mice, female, purchased from Beijing Vital River Laboratory Animal Technology Co., Ltd., with animal production license number of SCXK (Shanghai) 2017-0005.
A certain amount of compound of Example 6 was weighed, dissolved by adding 5% by volume of DMSO and 5% Tween 80 (Shanghai Titan Scientific Co., Ltd.), and then prepared into a 0.1 mg/mL clear solution by adding 90% normal saline.
A certain amount of the control example CC-92480 was weighed, dissolved by adding 5% by volume of DMSO and 5% Tween 80 (Shanghai Titan Scientific Co., Ltd.), and then prepared into a 0.1 mg/mL clear solution by adding 90% normal saline.
Nine mice were intragastrically administered with the compound of Example 6 at a dose of 2 mg/kg and at a volume of 0.2 mL/10 g.
Nine mice were intragastrically administered with the control example CC-92480 at a dose of 2 mg/kg and at a volume of 0.2 mL/10 g.
Mice were intragastrically administered with the compound of Example 6 and the control example CC-92480, and 0.2 mL of blood was collected before the administration and 0.25 h, 0.5 h, 1.0 h, 2.0 h, 4.0 h, 6.0 h, 8.0 h, 11.0 h and 24.0 h after the administration (3 animals at each time point), placed in EDTA-K2 anticoagulation tubes, and centrifuged at 10,000 rpm for 1 min(4° C.). Plasma was separated within 1 h, and stored at −20° C. for testing. The process from blood collection to centrifugation was performed under an ice bath.
The content of the test compounds at different concentrations in mouse plasma after the administration was determined: 25 μL of mouse plasma at each time point after the administration was mixed with 50 μL (100 ng/mL) of internal standard solution camptothecin (National Institutes for Drug Control) and 175 μL of acetonitrile. The mixture was vortexed for 5 min and centrifuged for 10 min (3700 rpm/min), and 1 μL of the supernatant of the plasma sample was taken for LC/MS/MS assay (API4000 triple quadrupole tandem mass spectrometer, Applied Biosystems, USA; Shimadzu, LC-30AD ultra high performance liquid chromatography system, Shimadzu, Japan).

[2] = Effect on body weight of tumor-bearing CB-17 SCID mice; assay type: in vivo; conditions: 1 mg/kg qd, 11 days
Description: NCI-H929 cells in a logarithmic growth phase were inoculated subcutaneously into the right flank of 30 female CB-17 SCID mice at 5×10^6 cells/mouse/100 μL (containing 50 μL of Matrigel). After 10 days, when the tumor volume of the tumor-bearing mice reached about 200 mm^3, the mice were randomly divided into 3 groups according to the tumor volume and body weight: vehicle control group, CC-92480-1 mpk, compound of Example 6-1 mpk, with 7 mice in each group. The day of grouping was set as Day 0 (D0), and intragastric administration was performed once a day for 11 days (Table 2). For the tumor-bearing mice, the tumor volume was measured with a vernier caliper and the body weight was measured with a balance twice a week, and the data were recorded.
The effect of the compound of Example 6 and the control example CC-92480 on the body weight of CB-17 SCID mice is shown in FIG. 2.

[3] = test system: NCI-H929 cells; assay: NCI-H929 proliferation experiment (CellTiter-Glo, 5 days); assay type: cell-based; conditions: Homo sapiens, 120 h, 5 days incubation, read-out: IC50 values for the inhibition of proliferation of NCI-H929 cells
Description: The following method was used to determine the inhibitory activity of the compounds of the present disclosure on the proliferation of NCI-H929 cells. The experimental method was briefly described as follows.
NCI-H929 cells (ATCC, CRL-9068) were cultured in a complete medium (RPMI 1640 medium (Hyclone, SH30809.01) containing 10% fetal bovine serum (Corning, 35-076-CV) and 0.05 mM 2-mercaptoethanol (Sigma, M3148)). On the first day of the experiment, NCI-H929 cells were seeded in a 96-well plate at a density of 6000 cells/well with a complete medium to form 100 μL of cell suspension per well, and 10 μL of test compound prepared in a complete medium and diluted in a gradient was added to each well. The compound was firstly dissolved in DMSO, with an initial concentration of 10 mM, and then subjected to serial dilution at a 5-fold concentration gradient for a total of 9 concentration points, with a blank control of 100% DMSO. Another 5 μL of the compound dissolved in DMSO was added to 95 μL of complete medium, i.e., the compound was diluted 20-fold with the complete medium. Finally the compound diluted in the complete medium at 10 μL/well was added to the cell suspension, wherein the final concentrations of the compound were 9 concentration points obtained by 5-fold gradient dilution starting from 50 μM. A blank control containing 0.5% DMSO was set. The plate was incubated in a cell incubator at 37° C. with 5% CO2 for 5 days. On the sixth day, the 96-well cell culture plate was taken out, added with a CellTiter-Glo® luminescent cell activity detect reagent (Promega, G7573) at 50 μL/well, left to stand at room temperature for 10 min, and read for the luminescence signal values using a multi-mode microplate reader (PerkinElmer, EnVision 2015). IC50 values for the inhibitory activity of the compounds were calculated using Graphpad Prism software, with the results shown in Table 1.

With `N#Cc1ccc(N2CCC(Sc3ccc(COc4cccc5c4CN([C@H]4CCC(=O)NC4=O)C5=O)cn3)CC2)c(F)c1` [Compound 6, (S)-4-(4-((5-(((2-(2,6-dioxopiperidin-3-yl)-1-oxoisoindolin-4-yl)oxy)methyl)pyridin-2-yl)thio)piperidin-1-yl)-3-fluorobenzonitrile] the Vd/F ([1]; read-out: Apparent volume of distribution Vz/F) was 1.79 L/kg, the AUC ([1]; read-out: Area under curve AUC) was 4690 ng·h/mL and the CL/F ([1]; read-out: Clearance CL/F) was 7.1 mL/min/kg. The half-life ([1]; read-out: Half-life T½ (converted)) was 174 min, the Cmax ([1]; read-out: Plasma concentration Cmax) was 799 ng/mL and the MRT ([1]; read-out: Residence time MRT) was 4.6 h. The “influence on the body weight of mice” value [2] was “no influence on the body weight of mice” and the IC50 [3] was 0.02 nM.
